Legend:
[1] = target: T1, FLT3 (D835Y) (Homo sapiens, UniProt P36888, D835Y); assay: KINOMEscan kinase binding assay, FLT3 (D835Y)
T1 construct: host or cells: T7 phage in E. coli (BL21-derived) or HEK-293
T1 sequence (P36888 27-993 D835Y): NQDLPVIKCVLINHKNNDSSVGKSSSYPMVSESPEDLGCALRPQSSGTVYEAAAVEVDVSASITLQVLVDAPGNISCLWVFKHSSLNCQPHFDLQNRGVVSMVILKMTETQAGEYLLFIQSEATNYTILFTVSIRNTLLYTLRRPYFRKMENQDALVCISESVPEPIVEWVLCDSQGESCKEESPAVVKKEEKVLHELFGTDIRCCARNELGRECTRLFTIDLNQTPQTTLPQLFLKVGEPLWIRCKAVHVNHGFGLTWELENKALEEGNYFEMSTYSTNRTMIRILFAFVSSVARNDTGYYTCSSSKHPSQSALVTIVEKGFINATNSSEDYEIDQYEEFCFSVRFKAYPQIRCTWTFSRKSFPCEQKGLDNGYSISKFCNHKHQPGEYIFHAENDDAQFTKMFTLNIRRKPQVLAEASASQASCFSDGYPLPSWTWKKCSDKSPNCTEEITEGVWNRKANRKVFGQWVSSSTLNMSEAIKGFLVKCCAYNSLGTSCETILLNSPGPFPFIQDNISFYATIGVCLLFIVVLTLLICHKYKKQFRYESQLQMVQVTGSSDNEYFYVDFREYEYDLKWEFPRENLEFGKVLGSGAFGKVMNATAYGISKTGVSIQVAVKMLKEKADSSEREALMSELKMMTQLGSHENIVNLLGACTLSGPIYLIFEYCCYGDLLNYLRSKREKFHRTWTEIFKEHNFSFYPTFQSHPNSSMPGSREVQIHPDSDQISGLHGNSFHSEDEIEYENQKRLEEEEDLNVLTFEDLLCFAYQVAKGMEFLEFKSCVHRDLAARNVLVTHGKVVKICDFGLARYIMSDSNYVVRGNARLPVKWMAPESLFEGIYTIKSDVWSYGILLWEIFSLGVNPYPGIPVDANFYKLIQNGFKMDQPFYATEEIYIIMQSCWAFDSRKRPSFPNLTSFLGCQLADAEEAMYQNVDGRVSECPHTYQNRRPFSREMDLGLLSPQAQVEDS
Protocol: The kinase assay was conducted using KINOMEscan™.
Kinase-tagged T7 phage strains were grown in parallel in 24-well blocks in an E. coli host derived from the BL21 strain. E. coli were grown to log-phase and infected with T7 phage from a frozen stock (multiplicity of infection=0.4) and incubated with shaking at 32° C. until lysis (90-150 minutes). The lysates were centrifuged (6,000×g) and filtered (0.2 μm) to remove cell debris. The remaining kinases were produced in HEK-293 cells and subsequently tagged with DNA for qPCR detection. Streptavidin-coated magnetic beads were treated with biotinylated small molecule ligands for 30 minutes at room temperature to generate affinity resins for kinase assays. The liganded beads were blocked with excess biotin and washed with blocking buffer (SeaBlock (Pierce), 1% BSA, 0.05% Tween 20, 1 mM DTT) to remove unbound ligand and to reduce non-specific phage binding. Binding reactions were assembled by combining kinases, liganded affinity beads, and test compound (Compound 23) in 1× binding buffer (20% SeaBlock, 0.17×PBS, 0.05% Tween 20, 6 mM DTT). Test compound were prepared as 40× stocks in 100% DMSO and directly diluted into the assay. All reactions were performed in polypropylene 384-well plates in a final volume of 0.04 ml. […] The kinase concentration in the eluates was measured by qPCR. […]

[2] = test system: Human AML cell line MOLM-13 (FLT3-ITD positive and wild type TP53 gene); assay: Human MOLM-13 AML systemic mouse xenograft model, survival; type: in vivo; conditions: MOLM-13 systemic model, Compound 23 10 mg/kg, Compound C 20 mg/kg, p.o. q2d × 21 d
Protocol: The formulation of Compound C was prepared as homogenous suspension in 0.2% HPMC using a mortar. The drug suspension was prepared every three days or once a week and placed at 4° C. when not in use. Before use, the drug suspension was placed at room temperature and shaken to mix well. The formulation of Compound C was administered to mice via p.o. in a volume of 10 mL/kg.
The formulation of Compound 23 was prepared in 0.2% HPMC in a mortar to generate homogenous suspension. The drug suspension was prepared once every other day and placed at 4° C. when not in use. Before use, the drug suspension was placed at room temperature and shaken well. The formulation of Compound 23 was administered to mice via p.o. in a volume of 10 mL/kg.
MOLM-13 cell lines (Human AML cell line MOLM-13 (FLT3-ITD positive and wild type TP53 gene)) were maintained in RPMI-1640 (Cat. C11875500BT, GIBCO) with 10% fetal bovine serum (Cat. 10099-141, GIBCO), 1% L-glutamine, 100 U/mL penicillin G and 100 μg/mL streptomycin (Cat. GNM15140, Hangzhou Geno Biomedical Technology Co., Ltd). Cells were incubated at 37° C. in a humidified incubator with 5% CO2.
Six to eight weeks old, female, NOD SCID and BALB/c nude mice were used. Animals were obtained from Vital River Laboratories (VRL, Beijing, China, license number SCXK(J) 2012-0001 and SCXK(J) 2016-0006). The body weights were 17-24 g.
MOLM-13 systemic tumor model were established by injecting tumor cells into the tail vein (10×10^6 cells/mouse) under the sterile condition. To establish the MOLM-13 systemic model, all animals were intraperitoneally injected (i.p.) with cyclophosphamide (150 mg/kg) for two consecutive days before the inoculation of MOLM-13 cells. On the third day after cell inoculation, animals were randomized into 10 mice per group and treatment was initiated (day 1) according to Table 2.
The animals were euthanized when the experimental animals had symptoms such as weight loss and weight loss greater than 20%, limb paralysis, tumor metastasis to the eye causing ocular protrusion, tumor metastasis to the abdominal cavity causing abdominal enlargement. These severe health issues were considered as the same as animal death caused by tumor growth and the affected animals were sacrificed immediately.
The date of the last mouse died (the last measurement) was used for analysis of median overall survival and the generation of Kaplan-Meier plots. Survival curves of different treatment groups were compared using log-rank test with Bonferroni's multiple test. All data were analyzed in SPSS version 18.0 (IBM, Armonk, NY, U.S.A.). Prism version 6 (GraphPad Software Inc., San Diego, CA, U.S.A.) was used for graphic presentation.

## Cc1ccc(C(=O)Nc2ccc(CN3CCN(C)CC3)c(C(F)(F)F)c2)cc1C#Cc1cnc2[nH]ncc2c1 [Compound 23, 3-(2-(1H-pyrazolo[3,4-b]pyridin-5-yl)ethynyl)-4-methyl-N-(4-((4-methylpiperazin-1-yl)methyl)-3-(trifluoromethyl)phenyl)benzamide]
[1]; 10 nM
  % Ctrl@10 nM: 42 % Ctrl
[1]; 100 nM
  % Ctrl@100 nM: 17 % Ctrl
[2]; vehicle 19 days
  Median survival time of mice: 29 days
[2]; versus vehicle
  Prolonged survival time of mice: 10 days

— patent US12233047B2, “Pharmaceutical combination and use thereof” (ASCENTAGE PHARMA (SUZHOU) CO., LTD., priority 2019, dated 2025)
